Columns and labels:
Test in all cases: relative viability (nuclei count vs DMSO), 5 days (fraction); higher = more cells survive
Zebularine + OSI-027 = compound: O=c1ncccn1[C@@H]1O[C@H](CO)[C@@H](O)[C@H]1O [Zebularine] + COc1cccc2cc(-c3nc([C@H]4CC[C@H](C(=O)O)CC4)n4ncnc(N)c34)[nH]c12 [OSI-027] (partner 0.5 µM)
Summary of the method: (§1)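 Lung cancer cell lines were pin-tool dosed in 1536-well plates on the day after seeding, with either a lone drug or a fixed anchor-drug dose plus five library-drug doses (not always all listed) in √10 steps. Nuclei were counted on 4× images after 5 days. Relative viability is the ratio of treated-well to vehicle-well nuclei counts, with each value a median of duplicate plates.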

BI-D1870 + Pemetrexed = compound: CC(C)CCN1c2nc(Nc3cc(F)c(O)c(F)c3)ncc2N(C)C(=O)C1C [BI-D1870] + Nc1nc2[nH]cc(CCc3ccc(C(=O)N[C@@H](CCC(=O)O)C(=O)O)cc3)c2c(=O)[nH]1 [Pemetrexed] (partner 0.2 µM)
Summary of the method: as §1

Zebularine + Olaparib = compound: O=c1ncccn1[C@@H]1O[C@H](CO)[C@@H](O)[C@H]1O [Zebularine] + O=C(c1cc(Cc2n[nH]c(=O)c3ccccc23)ccc1F)N1CCN(C(=O)C2CC2)CC1 [Olaparib] (partner 8 µM)
Summary of the method: as §1

Zebularine + Decitabine = compound: O=c1ncccn1[C@@H]1O[C@H](CO)[C@@H](O)[C@H]1O [Zebularine] + Nc1ncn([C@H]2C[C@H](O)[C@@H](CO)O2)c(=O)n1 [Decitabine] (partner 2 µM)
Summary of the method: as §1

Cell Line	relative viability (Zebularine + OSI-027; first compound 1 µM)	relative viability (Zebularine + OSI-027; first compound 3.162 µM)	relative viability (Zebularine + OSI-027; first compound 10 µM)	relative viability (Zebularine + OSI-027; first compound 31.62 µM)	relative viability (Zebularine + OSI-027; first compound 100 µM)	relative viability (BI-D1870 + Pemetrexed; first compound 0.04 µM)	relative viability (BI-D1870 + Pemetrexed; first compound 0.1265 µM)	relative viability (BI-D1870 + Pemetrexed; first compound 0.4 µM)	relative viability (BI-D1870 + Pemetrexed; first compound 1.265 µM)	relative viability (BI-D1870 + Pemetrexed; first compound 4 µM)	relative viability (Zebularine + Olaparib; first compound 1 µM)	relative viability (Zebularine + Olaparib; first compound 3.162 µM)	relative viability (Zebularine + Olaparib; first compound 10 µM)	relative viability (Zebularine + Olaparib; first compound 31.62 µM)	relative viability (Zebularine + Olaparib; first compound 100 µM)	relative viability (Zebularine + Decitabine; first compound 1 µM)	relative viability (Zebularine + Decitabine; first compound 3.162 µM)	relative viability (Zebularine + Decitabine; first compound 10 µM)	relative viability (Zebularine + Decitabine; first compound 31.62 µM)	relative viability (Zebularine + Decitabine; first compound 100 µM)
NCI-H3122	1.24	1.03	0.603	1.03	0.755	0.187	0.194	0.203	0.222	0.202	0.727	0.631	0.358	0.478	0.369	0.507	0.475	0.411	0.411	0.532
NCI-H460	0.971	0.707	0.336	0.18	0.0887	0.0638	0.0586	0.0621	0.0582	0.0624	0.433	0.405	0.22	0.162	0.133	0.549	0.504	0.236	0.467	0.112
NCI-H650	0.54	0.524	0.437	0.356	0.26	0.848	0.837	0.96	0.896	0.802	0.351	0.332	0.307	0.28	0.177	0.28	0.285	0.31	0.298	0.297
NCI-H661	0.794	0.671	0.591	0.764	0.627	0.913	0.906	0.931	0.928	0.857	0.856	0.708	0.56	0.943	0.688	0.564	0.551	0.48	0.608	0.505
NCI-H1793	0.26	0.215	–	0.288	0.221	1.14	0.737	0.869	1.03	0.686	1.02	0.906	0.37	0.333	0.27	0.471	0.523	0.292	0.328	0.218
NCI-H1734	0.672	0.556	0.488	0.425	0.317	0.403	0.4	0.416	0.412	0.347	0.581	0.523	0.334	0.303	0.239	0.445	0.828	0.421	0.516	0.295
LXF-289	0.827	0.69	0.626	0.564	0.329	0.959	0.857	0.876	0.877	0.764	1.06	0.995	0.549	0.31	0.275	0.362	0.331	0.382	0.345	0.24
H3255	0.605	0.522	0.43	0.689	0.487	0.57	0.563	0.584	0.584	0.526	0.624	0.597	0.502	0.577	0.513	0.687	0.615	–	0.65	0.665
201T	0.602	0.691	0.517	0.592	0.378	0.319	0.308	0.307	0.344	0.316	0.907	0.798	0.574	0.544	0.474	0.872	0.883	0.76	0.894	0.844
NCI-H2126	0.721	0.718	0.619	0.8	0.602	0.694	0.726	0.649	0.744	0.552	1.08	0.855	0.778	0.664	0.43	0.582	0.629	0.585	0.608	0.396
HOP-62	0.945	0.745	0.493	0.465	0.319	0.331	0.333	0.379	0.409	0.365	0.169	0.35	0.257	0.163	0.16	0.205	0.205	0.209	0.164	0.178
NCI-H520	0.281	0.23	0.266	0.298	0.239	0.757	0.673	0.636	0.416	0.267	0.337	0.299	0.319	0.243	0.192	0.552	0.49	0.399	0.299	0.233
NCI-H1755	0.801	0.732	0.631	0.85	0.566	0.497	0.469	0.408	0.465	0.408	0.911	0.891	0.729	0.74	0.472	0.713	0.715	0.703	0.786	0.615
NCI-H2023	0.471	0.437	0.314	0.457	0.302	0.24	0.255	0.288	0.255	0.149	0.512	0.452	0.392	0.256	0.244	0.243	0.22	0.166	0.199	0.182
NCI-H2009	0.687	0.607	0.508	0.515	0.366	1.06	1.11	1.1	0.993	0.877	0.624	0.648	0.461	0.438	0.263	0.386	0.36	0.33	0.383	0.266

— the supplement of paper PMC10307832
